Values joined by “and” are separate entries in the source; they are usually repeats but may differ in a detail not shown here. Identical values can stand only once. Like-named read-outs stand apart in the source and are kept apart here.
What was measured:
Type in all cases: cell-based
[1] = target: protein kinases (human kinome) (Homo sapiens, UniProt P42684); conditions: for logFC: ABL2 (P42684) protein abundance, degrader vs DMSO, down
[2] = target: protein kinases (human kinome) (Homo sapiens, UniProt Q16584)
Sequence of protein kinases (human kinome) (Homo sapiens, UniProt Q16584) (Q16584 whole entry): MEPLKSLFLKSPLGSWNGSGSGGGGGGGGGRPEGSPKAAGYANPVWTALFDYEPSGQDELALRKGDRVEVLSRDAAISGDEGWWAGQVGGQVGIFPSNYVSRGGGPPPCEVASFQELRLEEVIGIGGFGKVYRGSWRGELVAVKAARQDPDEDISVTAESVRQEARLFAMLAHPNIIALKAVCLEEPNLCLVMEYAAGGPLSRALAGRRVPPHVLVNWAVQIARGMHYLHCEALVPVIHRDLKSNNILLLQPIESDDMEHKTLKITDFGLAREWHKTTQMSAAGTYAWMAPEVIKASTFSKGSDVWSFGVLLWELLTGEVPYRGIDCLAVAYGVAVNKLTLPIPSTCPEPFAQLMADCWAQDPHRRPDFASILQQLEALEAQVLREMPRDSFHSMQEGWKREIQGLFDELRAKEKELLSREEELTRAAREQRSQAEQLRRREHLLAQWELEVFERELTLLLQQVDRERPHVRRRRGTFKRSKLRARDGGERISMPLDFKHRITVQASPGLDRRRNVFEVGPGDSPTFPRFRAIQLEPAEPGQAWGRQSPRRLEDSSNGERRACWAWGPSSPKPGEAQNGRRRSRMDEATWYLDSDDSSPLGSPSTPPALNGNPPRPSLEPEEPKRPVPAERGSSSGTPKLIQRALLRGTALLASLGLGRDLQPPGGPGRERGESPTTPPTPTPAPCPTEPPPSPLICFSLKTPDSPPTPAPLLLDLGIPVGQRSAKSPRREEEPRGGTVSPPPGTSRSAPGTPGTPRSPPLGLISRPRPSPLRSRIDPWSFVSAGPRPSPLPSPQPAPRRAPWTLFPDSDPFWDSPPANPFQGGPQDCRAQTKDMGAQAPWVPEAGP

[3] = target: protein kinases (human kinome) (Homo sapiens, UniProt P24941)
[4] = target: T1, protein kinases (human kinome) (Homo sapiens, UniProt O94768); conditions: for logFC STK17B (O94768): direction down; for logFC: STK17B (O94768)
T1 sequence (O94768 1-372): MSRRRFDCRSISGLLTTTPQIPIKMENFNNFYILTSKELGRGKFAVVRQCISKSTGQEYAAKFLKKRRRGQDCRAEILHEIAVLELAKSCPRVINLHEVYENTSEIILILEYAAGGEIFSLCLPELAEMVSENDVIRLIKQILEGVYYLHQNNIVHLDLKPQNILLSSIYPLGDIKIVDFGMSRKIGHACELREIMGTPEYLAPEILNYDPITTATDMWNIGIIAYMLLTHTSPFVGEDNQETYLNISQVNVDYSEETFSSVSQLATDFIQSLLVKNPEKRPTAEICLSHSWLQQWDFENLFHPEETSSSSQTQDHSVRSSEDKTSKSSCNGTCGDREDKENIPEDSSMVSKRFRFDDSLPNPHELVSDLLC

[5] = target: protein kinases (human kinome) (Homo sapiens, UniProt P41240); conditions: for logFC of CSK: Accession P41240; for logFC CSK: CSK (P41240), down
Sequence of protein kinases (human kinome) (Homo sapiens, UniProt P41240) (P41240 whole entry): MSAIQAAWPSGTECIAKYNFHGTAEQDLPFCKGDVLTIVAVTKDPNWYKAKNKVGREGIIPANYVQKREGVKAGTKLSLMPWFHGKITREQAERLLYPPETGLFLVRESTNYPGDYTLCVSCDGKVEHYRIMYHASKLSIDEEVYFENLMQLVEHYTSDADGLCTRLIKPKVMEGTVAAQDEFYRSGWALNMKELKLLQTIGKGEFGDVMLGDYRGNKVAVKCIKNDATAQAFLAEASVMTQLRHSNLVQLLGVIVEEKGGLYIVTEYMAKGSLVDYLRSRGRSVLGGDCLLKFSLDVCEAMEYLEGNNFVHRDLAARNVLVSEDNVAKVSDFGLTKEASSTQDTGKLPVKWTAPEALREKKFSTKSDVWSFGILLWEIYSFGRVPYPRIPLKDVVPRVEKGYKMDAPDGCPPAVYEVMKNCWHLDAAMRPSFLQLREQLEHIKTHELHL

[6] = target: T2, protein kinases (human kinome) (Homo sapiens, UniProt Q8TAS1)
T2 sequence (Q8TAS1 1-419): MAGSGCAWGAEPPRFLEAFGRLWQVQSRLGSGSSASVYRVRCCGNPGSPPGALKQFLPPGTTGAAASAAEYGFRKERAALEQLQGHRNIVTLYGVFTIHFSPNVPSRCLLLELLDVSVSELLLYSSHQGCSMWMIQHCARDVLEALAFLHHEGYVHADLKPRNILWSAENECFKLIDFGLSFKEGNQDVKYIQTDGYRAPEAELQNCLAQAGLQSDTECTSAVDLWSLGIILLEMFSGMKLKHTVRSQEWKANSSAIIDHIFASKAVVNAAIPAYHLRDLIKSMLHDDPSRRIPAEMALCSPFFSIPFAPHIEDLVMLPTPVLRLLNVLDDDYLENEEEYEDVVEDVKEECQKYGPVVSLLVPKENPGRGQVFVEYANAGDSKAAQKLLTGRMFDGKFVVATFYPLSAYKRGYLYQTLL

[7] = target: protein kinases (human kinome) (Homo sapiens, UniProt Q00537); conditions: experiment wp146
Sequence of protein kinases (human kinome) (Homo sapiens, UniProt Q00537) (Q00537 whole entry): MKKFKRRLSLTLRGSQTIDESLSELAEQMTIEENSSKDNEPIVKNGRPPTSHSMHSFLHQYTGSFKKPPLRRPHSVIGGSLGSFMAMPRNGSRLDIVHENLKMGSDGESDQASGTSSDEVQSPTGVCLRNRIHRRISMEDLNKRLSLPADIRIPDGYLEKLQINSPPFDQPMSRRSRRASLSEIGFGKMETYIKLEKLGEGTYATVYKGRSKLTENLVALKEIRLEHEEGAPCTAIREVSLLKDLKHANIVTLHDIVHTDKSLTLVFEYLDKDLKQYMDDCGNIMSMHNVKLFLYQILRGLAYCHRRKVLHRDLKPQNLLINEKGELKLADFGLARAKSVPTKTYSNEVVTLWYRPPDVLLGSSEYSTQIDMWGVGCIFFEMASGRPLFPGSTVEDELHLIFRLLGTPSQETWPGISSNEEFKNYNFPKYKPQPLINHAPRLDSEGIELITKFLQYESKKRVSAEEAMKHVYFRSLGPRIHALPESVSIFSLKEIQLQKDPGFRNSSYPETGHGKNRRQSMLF

Sequence of protein kinases (human kinome) (Homo sapiens, UniProt P42684) (P42684 whole entry): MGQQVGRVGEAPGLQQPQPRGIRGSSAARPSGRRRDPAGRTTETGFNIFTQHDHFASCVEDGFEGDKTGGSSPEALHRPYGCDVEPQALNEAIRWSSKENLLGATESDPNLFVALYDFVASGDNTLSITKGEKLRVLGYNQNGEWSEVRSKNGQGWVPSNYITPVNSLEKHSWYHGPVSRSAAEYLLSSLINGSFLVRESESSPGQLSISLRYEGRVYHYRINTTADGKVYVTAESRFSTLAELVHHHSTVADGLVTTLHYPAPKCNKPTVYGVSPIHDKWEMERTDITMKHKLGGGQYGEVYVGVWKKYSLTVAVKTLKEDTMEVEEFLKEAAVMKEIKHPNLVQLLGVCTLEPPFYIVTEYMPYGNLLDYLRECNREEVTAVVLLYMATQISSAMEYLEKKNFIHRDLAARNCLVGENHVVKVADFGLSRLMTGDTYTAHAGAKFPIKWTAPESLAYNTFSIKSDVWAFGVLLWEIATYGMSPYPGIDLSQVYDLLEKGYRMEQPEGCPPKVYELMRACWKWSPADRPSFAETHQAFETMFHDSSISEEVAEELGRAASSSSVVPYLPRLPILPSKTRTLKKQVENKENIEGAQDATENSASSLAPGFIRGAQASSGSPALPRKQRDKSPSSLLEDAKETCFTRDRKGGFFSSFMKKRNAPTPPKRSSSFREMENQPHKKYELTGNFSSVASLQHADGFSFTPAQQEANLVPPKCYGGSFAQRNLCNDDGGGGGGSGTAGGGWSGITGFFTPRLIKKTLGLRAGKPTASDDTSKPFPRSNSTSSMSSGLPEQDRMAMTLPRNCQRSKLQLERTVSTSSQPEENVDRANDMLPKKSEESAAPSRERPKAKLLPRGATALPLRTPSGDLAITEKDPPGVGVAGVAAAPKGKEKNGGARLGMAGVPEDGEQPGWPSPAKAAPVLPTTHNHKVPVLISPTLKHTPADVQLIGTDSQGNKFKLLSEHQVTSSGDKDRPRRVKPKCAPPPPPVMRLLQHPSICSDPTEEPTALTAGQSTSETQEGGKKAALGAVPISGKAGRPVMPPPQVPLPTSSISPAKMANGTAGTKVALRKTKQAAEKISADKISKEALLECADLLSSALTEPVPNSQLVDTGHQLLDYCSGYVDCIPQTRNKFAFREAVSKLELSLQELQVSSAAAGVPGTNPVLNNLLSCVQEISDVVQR

`CC(C)S(=O)(=O)c1ccccc1Nc1nc(Nc2ccc(N3CCN(CCOCCOCCC(=O)NCCNc4cccc5c4CN(C4CCC(=O)NC4=O)C5=O)CC3)cc2)ncc1Cl` (stereo not drawn) [TL13.97] was tested, and the logFC [1] was −0.5116, the “logFC ABL2 (P42684)” value ([1]; experiment wp137) was −0.5116 and the “logFC MAP3K11 (Q16584)” value ([2]; experiment wp137) was −0.7626. For the same compound, the “logFC CDK2 (P24941-1)” value ([3]; experiment wp137) was −0.7834 and the “logFC CDK2 (P24941-1)” value ([3]; experiment wp137, direction of change down) was −0.7834.

For `CS(=O)(=O)Nc1cccc(-c2csc3cnc(Nc4ccc(N5CCN(CCCCCOc6cccc7c6C(=O)N(C6CCC(=O)NC6=O)C7=O)CC5)cc4)nc23)c1` (stereo not drawn) [DB0614, N-(3-(2-((4-(4-(5-((2-(2,6-Dioxopiperidin-3-yl)-1,3-dioxoisoindolin-4-yl)oxy)pentyl)piperazin-1-yl)phenyl)amino)thieno[3,2-d]pyrimidin-7-yl)phenyl)methanesulfonamide], the “logFC STK17B (O94768)” value ([4]; Experiment wp045) was −0.9829, the “logFC STK17B (O94768)” value ([4]; Experiment wp117) was −0.7771 and the logFC ([4]; experiment wp045) was −0.9829. The logFC ([4]; experiment wp117) was −0.7771 and the “logFC MAP3K11 (Q16584)” value ([2]; experiment wp117) was −0.7291.

`Cc1ccc(NC(=O)c2cccc(C(F)(F)F)c2)cc1N1Cc2cnc(Nc3ccc(N4CCN(CCCOc5cccc6c5C(=O)N(C5CCC(=O)NC5=O)C6=O)CC4)nc3)nc2N(C)C1=O` (stereo not drawn) [DB0662] was tested, and the logFC [1] was −1.207, the “logFC ABL2 (P42684)” value ([1]; Experiment wp168) was −1.207 and the “logFC of CSK” value ([5]; experiment wp168) was −1.833. The “logFC CSK” value ([5]; experiment wp168) was −1.833, the “logFC MAP3K11 (Q16584)” value ([2]; experiment wp168) was −0.7288 and the “logFC UHMK1” value ([6]; Accession Q8TAS1, experiment wp168, direction down) was −0.3949. For the same compound, the “logFC UHMK1” value ([6]; UHMK1 (Q8TAS1), experiment wp168) was −0.3949.

With `NC(=O)c1c(F)cccc1Nc1nc(Nc2ccc(S(=O)(=O)NCCOCCOCCOCCOCCNc3cccc4c3C(=O)N(C3CCC(=O)NC3=O)C4=O)cc2)ncc1Br` (stereo not drawn) [TMX.02.138] the “logFC of CDK17” value ([7]; Accession Q00537) was −1.361, the “logFC CDK17 (Q00537)” value ([7]; direction of change down) was −1.361 and the “logFC MAP3K11 (Q16584)” value ([2]; experiment wp146) was −0.9241. The “logFC CDK2 (P24941-1)” value ([3]; experiment wp146) was −2.27 and the “logFC CDK2 (P24941-1)” value ([3]; experiment wp146, direction of change down) was −2.27.

For `Cc1ccc(NC(=O)c2cccc(C(F)(F)F)c2)cc1N1Cc2cnc(Nc3ccc(N4CCN(Cc5cn(CCCCCOc6cccc7c6C(=O)N(C6CCC(=O)NC6=O)C7=O)nn5)CC4)nc3)nc2N(C)C1=O` (stereo not drawn) [DB0646, N-(3-(7-((6-(4-((1-(5-((2-(2,6-Dioxopiperidin-3-yl)-1,3-dioxoisoindolin-4-yl)oxy)pentyl)-1H-1,2,3-triazol-4-yl)methyl)piperazin-1-v)pyridin-3-yl)amino)-1-methyl-2-oxo-1,4-dihydropyrimido[4,5-d]pyrimidin-3(2H)-yl)-4-methylphenyl)-3-(trifluoromethyl)benzamide], the logFC ([1]; 4 hr) was −0.5029, the logFC ([1]; 8 hr) was −0.7288 and the logFC [1] was −0.5941 and −0.5342 and −0.5362. For the same compound, the “logFC ABL2 (P42684)” value ([1]; Experiment wp045) was −0.5941, the “logFC ABL2 (P42684)” value ([1]; Experiment wp107) was −0.5342 and the “logFC ABL2 (P42684)” value ([1]; experiment wp152) was −0.5362. The “logFC ABL2 (P42684)” value ([1]; experiment wp160, 4 hr) was −0.5029, the “logFC ABL2 (P42684)” value ([1]; experiment wp160, 8 hr) was −0.7288 and the “logFC of CSK” value ([5]; experiment wp045) was −1.542. For the same compound, the “logFC of CSK” value ([5]; experiment wp103) was −1.282, the “logFC of CSK” value ([5]; experiment wp105) was −0.6868 and the “logFC of CSK” value ([5]; experiment wp107) was −1.311. For the same compound, the “logFC of CSK” value ([5]; experiment wp114) was −0.6932, the “logFC of CSK” value ([5]; experiment wp117) was −1.414 and the “logFC of CSK” value ([5]; experiment wp152) was −1.513. For the same compound, the “logFC of CSK” value ([5]; experiment wp160, 2 hr) was −0.8308, the “logFC of CSK” value ([5]; experiment wp160, 4 hr) was −1.416 and the “logFC of CSK” value ([5]; experiment wp160, 8 hr) was −1.753. The “logFC of CSK” value ([5]; experiment wp172) was −0.8538, the “logFC CSK” value ([5]; experiment wp045) was −1.542 and the “logFC CSK” value ([5]; experiment wp103) was −1.282. For the same compound, the “logFC CSK” value ([5]; experiment wp105) was −0.6868, the “logFC CSK” value ([5]; experiment wp107) was −1.311 and the “logFC CSK” value ([5]; experiment wp114) was −0.6932. The “logFC CSK” value ([5]; experiment wp117) was −1.414, the “logFC CSK” value ([5]; experiment wp152) was −1.513 and the “logFC CSK” value ([5]; experiment wp160, 2 hr) was −0.8308. The “logFC CSK” value ([5]; experiment wp160, 4 hr) was −1.416, the “logFC CSK” value ([5]; experiment wp160, 8 hr) was −1.753 and the “logFC CSK” value ([5]; experiment wp172) was −0.8538. For the same compound, the “logFC MAP3K11 (Q16584)” value ([2]; experiment wp107) was −0.5077, the “logFC MAP3K11 (Q16584)” value ([2]; experiment wp117) was −0.4308 and the “logFC UHMK1” value ([6]; Accession Q8TAS1, experiment wp107, direction down) was −0.3263. The “logFC UHMK1” value ([6]; Accession Q8TAS1, experiment wp117, direction down) was −0.4722, the “logFC UHMK1” value ([6]; Accession Q8TAS1, experiment wp160, 2 hr, direction down) was −0.4468 and the “logFC UHMK1” value ([6]; Accession Q8TAS1, experiment wp160, 4 hr, direction down) was −0.7551. For the same compound, the “logFC UHMK1” value ([6]; Accession Q8TAS1, experiment wp160, 8 hr, direction down) was −0.5196, the “logFC UHMK1” value ([6]; UHMK1 (Q8TAS1), experiment wp045) was −0.3945 and the “logFC UHMK1” value ([6]; UHMK1 (Q8TAS1), experiment wp107) was −0.3263. For the same compound, the “logFC UHMK1” value ([6]; UHMK1 (Q8TAS1), experiment wp117) was −0.4722, the “logFC UHMK1” value ([6]; UHMK1 (Q8TAS1), experiment wp160, 2 hr) was −0.4468 and the “logFC UHMK1” value ([6]; UHMK1 (Q8TAS1), experiment wp160, 4 hr) was −0.7551. For the same compound, the “logFC UHMK1” value ([6]; UHMK1 (Q8TAS1), experiment wp160, 8 hr) was −0.5196 and the “logFC UHMK1 (Q8TAS1)” value ([6]; experiment wp045) was −0.3945.

Reference: patent publication US20240269139A1, “COMPOUNDS FOR TARGETED PROTEIN DEGRADATION OF KINASES” (DANA-FARBER CANCER INSTITUTE, INC., priority 2020, published 2024)
